Values joined by “and” are separate entries in the source; they are usually repeats but may differ in a detail not shown here. Equal values may be shown once. “Also recorded” adds a separate entry of the source. Read-outs that look alike come from different tables or passages of the source.
Tests used:
[1] = Stability test of the crystal form (accelerated conditions, HPLC related substances); assay type: physicochemical
Experimental: […] The sample was analyzed after 10 days, 1 month and 2 months.
1.2 Preparation of Diluent and Mobile Phase
Diluent: acetonitrile:water (1:1) was used as diluent
For example: 100 mL of pure water and 100 mL of pure acetonitrile were mixed in a glass bottle, followed by degassing with ultrasound for 10 minutes, then cooled down to room temperature.
Mobile phase A: 0.1% phosphoric acid aqueous solution
For example: 2.0 mL phosphoric acid was added into 2000 mL water, followed by ultrasound treatment for 10 minutes, the solution was mixed well and cooled down to room temperature as mobile phase A.
Mobile phase B: acetonitrile
Acetonitrile was used as mobile phase B.
1.3 Preparation of the Reference Solution (0.25 mg/mL Calculated by the Free Base)
The sample of the 0th day was used as reference sample, 16 mL of diluent was added thereto, followed by ultrasound treatment for 5 minutes, and the solution was mixed well. Then the solution was further subjected to 1-fold dilution and marked as STD-1 and STD-2, respectively.
1.4 Preparation of Sample Solution for Testing Sensitivity
Reference solution STD-1 (the sample of the 0th day) was subjected to 2000-fold dilution, noted as LOQ.
1.5 Preparation of the Sample Solution (0.25 mg/mL Calculated by the Freebase)
The sample was taken out and restored to room temperature and 16 mL diluent was added for dissolution. The solution was further subjected to 1-fold dilution to be used as sample solution to detect the content of related substances.

[2] = Solubility test of the crystal form in different solvents; assay type: physicochemical; conditions: 25±2° C.; for solubility at 30 min: 25 °C, thermodynamic from solid, read-out: Solubility classification
Experimental: 10 mg of the crystal form of the compound of formula (I) was weighed accurately and placed in a glass bottle, 1 mL solvent was added thereto, the solution was shaken vigorously for 30 seconds every 5 minutes under 25±2° C., the dissolution phenomenon within 30 minutes was observed. The corresponding data was recorded. 1 mg of the insoluble sample in step 2.1 was weighed accurately and placed in a glass bottle, a suitable solvent was added thereto, the solution was shaken vigorously for 30 seconds every 5 minutes under 25±2° C., the dissolution phenomenon within 30 minutes was observed. The corresponding data was recorded. [table]

[3] = Hygroscopicity test of the crystal form; assay type: physicochemical; conditions: 25° C., 24 hours
Experimental: Three dry glass weighing bottles (with an outer diameter of 50 mm and a height of 30 mm) with a stopper was placed in a desiccator with saturated ammonium chloride solution at the lower part, the glass weighing bottles were left open, the desiccator was covered with lid, and then the desiccator was placed in a 25° C. incubator and left overnight.
The weighing bottle was weighed precisely after placed overnight, the weight was respectively m1 1, m1 2, m1 3
An appropriate amount of the crystal form of the compound of formula (I) was laid flat in the weighing bottles which was already weighed (with the sample thickness of about 1 mm), and was weighed precisely, the weight was respectively m2 1, m2 2, m2 3.
The weighing bottle was left open and was placed together with the stopper in a desiccator with saturated ammonium chloride solution at the lower part, the weighing bottle was left open, the desiccator was covered with lid, and then the desiccator was placed in a 25° C. incubator for 24 hours.
The weighing bottle was covered with its stopper after placed for 24 hours, and then it was weighed precisely, the weight was respectively m3 1, m3 2, m3 3.
The hygroscopic weight gain was calculated, the calculation formula is as follows: Weight gain percentage=100%×(m3−m2)/(m2−m1)

[4] = molecular target: T1, AKT1 (Homo sapiens, UniProt P31749); assay: AKT enzyme activity test (LANCE TR-FRET), AKT1; assay type: biochemical
T1 construct: purchased life technology
Text: (§1) AKT, also known as protein kinase B (PKB), is a serine/threonine specific protein kinase, mainly including AKT1, AKT2 and AKT3. The AKT signaling pathway plays an important role in various cellular processes such as glucose metabolism, apoptosis, cell proliferation transcription and cell migration. This study intends to analyze the inhibitory effect of the crystal form of the compound of formula (I) on the kinase activity of AKT family members.
(§2) In this experiment, the homogeneous time-resolved fluorescence […] energy transfer (LANCE TR-FRET®) method was used. The enzymes, biotinylated polypeptide substrates and the compound to be tested were mixed in the detection plate, and ATP was added to initiate the reaction and the mixture was incubated. After the reaction, EDTA was added to terminate the reaction, and Eu-labeled antibody was added at the same time to carry out the reaction and the reaction was detected. The detection plate was analyzed using Envision from PE Company, and the analysis mode was TR-FRET, the data were expressed by fluorescence signals at 665 nm and 615 nm, respectively.
(§3) Compound preparation: the test compound and the reference compound were diluted with 100% DMSO, the initial concentrations of the compounds were 10 μM, and the compounds were 3-fold gradient diluted into 10 concentrations. […]

[5] = molecular target: T2, AKT2 (Homo sapiens, UniProt P31751); assay: AKT enzyme activity test (LANCE TR-FRET), AKT2; assay type: biochemical
T2 construct: purchased life technology
Text: as §1, §2, §3

[6] = molecular target: T3, AKT3 (Homo sapiens, UniProt Q9Y243); assay: AKT enzyme activity test (LANCE TR-FRET), AKT3; assay type: biochemical
T3 construct: purchased life technology
Text: as §1, §2, §3

[7] = tested on: prostate cancer cell LNCaP overexpressing AKT; assay: Cytoactive test, cell proliferation (CellTiter-Glo); assay type: cell-based
Text: This experiment intends to study the inhibitory effect of the compound of formula (I) on the prostate cancer cell LNCaP overexpressing AKT.
The content of ATP directly reflects the number and state of cells, and the number of living cells can be detected by quantitatively measuring ATP. The live cell detection kit contains luciferase and its substrate, with the participation of ATP, luciferase can catalyze the substrate and emit a stable optical signal, the amount of ATP in the cell can be determined by detecting the strength of the signal. Wherein the light signal is proportional to the amount of ATP in the cell, and ATP is positively correlated to the number of living cells, so that the proliferation of the cell can be detected. The detection plate was analyzed by using Envision from PE Company.
LNCaP cells were seeded in a 384-well plate, each well contained 1000 cells.
The cell plate was placed in a carbon dioxide incubator overnight.
The compound was 3-fold diluted with Bravo into 10 compound concentrations, and a double duplicate well experiment was set up.
The compound was transferred to the cell plate at an initial concentration of 10 μM. […]
Promega CellTiter-Glo reagent was added to the cell plate, and incubated at room temperature for 10 minutes to stabilize the luminescence signal, which was read by PerkinElmer Envision multi-label analyzer.

T3 sequence (Q9Y243 whole entry): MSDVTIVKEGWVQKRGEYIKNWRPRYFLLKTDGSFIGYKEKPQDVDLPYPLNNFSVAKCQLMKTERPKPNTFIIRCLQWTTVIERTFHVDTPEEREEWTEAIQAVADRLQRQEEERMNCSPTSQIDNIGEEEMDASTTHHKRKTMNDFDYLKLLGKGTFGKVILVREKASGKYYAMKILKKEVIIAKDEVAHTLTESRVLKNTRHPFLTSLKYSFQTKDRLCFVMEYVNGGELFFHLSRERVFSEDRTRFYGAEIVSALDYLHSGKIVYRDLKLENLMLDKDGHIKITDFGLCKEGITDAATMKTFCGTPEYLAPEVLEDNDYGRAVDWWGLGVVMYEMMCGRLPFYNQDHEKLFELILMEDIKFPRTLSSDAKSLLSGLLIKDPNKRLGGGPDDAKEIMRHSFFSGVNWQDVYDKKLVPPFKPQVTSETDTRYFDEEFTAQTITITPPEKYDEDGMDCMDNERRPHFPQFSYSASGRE
T1 sequence (P31749 whole entry): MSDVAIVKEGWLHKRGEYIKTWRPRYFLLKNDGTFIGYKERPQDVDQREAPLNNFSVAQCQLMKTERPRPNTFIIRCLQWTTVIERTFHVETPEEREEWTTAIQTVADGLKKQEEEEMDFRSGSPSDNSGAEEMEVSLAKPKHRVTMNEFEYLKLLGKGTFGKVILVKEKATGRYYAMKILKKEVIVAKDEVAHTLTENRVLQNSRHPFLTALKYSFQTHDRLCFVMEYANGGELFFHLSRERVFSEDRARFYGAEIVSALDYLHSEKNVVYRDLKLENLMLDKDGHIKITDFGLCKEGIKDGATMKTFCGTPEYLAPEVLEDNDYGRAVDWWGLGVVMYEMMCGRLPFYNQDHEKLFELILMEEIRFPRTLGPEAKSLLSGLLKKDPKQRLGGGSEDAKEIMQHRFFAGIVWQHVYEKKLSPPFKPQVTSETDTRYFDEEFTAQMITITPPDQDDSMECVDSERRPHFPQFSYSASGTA
T2 sequence (P31751 whole entry): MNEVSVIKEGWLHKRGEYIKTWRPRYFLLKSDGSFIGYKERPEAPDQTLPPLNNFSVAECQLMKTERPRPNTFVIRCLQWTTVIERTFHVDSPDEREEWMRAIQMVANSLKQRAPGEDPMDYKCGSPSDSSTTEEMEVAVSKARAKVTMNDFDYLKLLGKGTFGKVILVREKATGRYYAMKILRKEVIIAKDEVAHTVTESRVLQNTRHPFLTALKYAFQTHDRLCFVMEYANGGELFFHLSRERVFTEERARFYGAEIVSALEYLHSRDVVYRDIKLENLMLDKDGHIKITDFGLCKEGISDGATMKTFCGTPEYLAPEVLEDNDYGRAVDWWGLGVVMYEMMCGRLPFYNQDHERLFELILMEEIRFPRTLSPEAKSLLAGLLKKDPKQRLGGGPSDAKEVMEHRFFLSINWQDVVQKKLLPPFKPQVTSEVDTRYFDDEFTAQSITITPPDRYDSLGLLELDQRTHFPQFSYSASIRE

Impurity content, RRT 1.26 ([1]; 60° C./75%RH, 10D): 0.09%
TRS (total impurity content) ([1]; 60° C./75%RH, 10D): 3.47%
Impurity content, RRT 0.95 ([1]; −20° C., 1M): 0.04%
Impurity content, RRT 0.98 ([1]; −20° C., 1M): 0.11%
Impurity content, RRT 0.99 ([1]; −20° C., 1M): 1.38%
Impurity content, RRT 1.02 ([1]; −20° C., 1M): 0.22%
Impurity content, RRT 1.04 ([1]; −20° C., 1M): 0.05%
Impurity content, RRT 1.21 ([1]; −20° C., 1M): 1.52%
Impurity content, RRT 1.26 ([1]; −20° C., 1M): 0.07%
TRS (total impurity content) ([1]; −20° C., 1M): 3.38%
Impurity content, RRT 0.95 ([1]; −20° C., 2M): 0.04%
Impurity content, RRT 0.98 ([1]; −20° C., 2M): 0.10%
Impurity content, RRT 0.99 ([1]; −20° C., 2M): 1.35%
Impurity content, RRT 1.02 ([1]; −20° C., 2M): 0.19%
Impurity content, RRT 1.04 ([1]; −20° C., 2M): 0.04%
Impurity content, RRT 1.21 ([1]; −20° C., 2M): 1.51%
Impurity content, RRT 1.26 ([1]; −20° C., 2M): 0.10%
Impurity content, RRT 1.43 ([1]; −20° C., 2M): 0.05%
TRS (total impurity content) ([1]; −20° C., 2M): 3.38%
Impurity content, RRT 0.95 ([1]; −20° C., 10D): 0.04%
Impurity content, RRT 0.98 ([1]; −20° C., 10D): 0.10%
Impurity content, RRT 0.99 ([1]; −20° C., 10D): 1.37%
Impurity content, RRT 1.02 ([1]; −20° C., 10D): 0.29%
Impurity content, RRT 1.04 ([1]; −20° C., 10D): 0.07%
Impurity content, RRT 1.21 ([1]; −20° C., 10D): 1.47%
Impurity content, RRT 1.26 ([1]; −20° C., 10D): 0.05%
TRS (total impurity content) ([1]; −20° C., 10D): 3.39%
Solubility classification ([2]; 0.1N HCl): barely soluble or insoluble
Solubility classification ([2]; 0.1N NaOH): barely soluble or insoluble
solubility at 30 min ([2]; aqueous buffer, 0.1N NaOH): < 0.1 mg/mL
solubility at 30 min ([2]; organic solvent or mixture, Acetonitrile): < 0.1 mg/mL
solubility at 30 min ([2]; organic solvent or mixture, Dimethyl sulfoxide): 100 to 1000 mg/mL
solubility at 30 min ([2]; organic solvent or mixture, Methanol): 1 to 10 mg/mL
solubility at 30 min ([2]; organic solvent or mixture, N-Methylpyrrolidone): 100 to 1000 mg/mL
solubility at 30 min ([2]; simulated gastric fluid, 0.1N HCl): 0.1 to 1 mg/mL
solubility at 30 min ([2]; Water): < 0.1 mg/mL
Solubility classification ([2]; Acetonitrile): barely soluble or insoluble
Solubility classification ([2]; Dimethyl sulfoxide): quite soluble
Solubility classification ([2]; Methanol): slightly soluble
Solubility classification ([2]; N-Methylpyrrolidone): quite soluble
Solubility classification ([2]; Water): barely soluble or insoluble
Hygroscopicity scale [3]: no or almost no hygroscopicity
Weight gain percentage, Average ([3]; average of 3 samples, saturated ammonium chloride): 0.07%
Weight gain percentage ([3]; single samples 1-3, saturated ammonium chloride): 0.05% and 0.12% and 0.04%
inhibition effect against the activity of AKT1 kinase [4]: strong inhibition effect
IC50 ([4]; Akt1 1.25 nM, ATP 36 μM, read-out: IC50 of inhibition on kinase activity, AKT1): 1.3 nM
inhibition effect against the activity of AKT2 kinase [5]: strong inhibition effect
IC50 ([5]; Akt2 2 nM, ATP 360 μM, read-out: IC50 of inhibition on kinase activity, AKT2): 50.3 nM
inhibition effect against the activity of AKT3 kinase [6]: strong inhibition effect
IC50 ([6]; Akt3 2 nM, ATP 160 μM, read-out: IC50 of inhibition on kinase activity, AKT3): 90.4 nM
IC50 ([7]; Homo sapiens, 72 h, 3 days, read-out: IC50 of inhibition on cell proliferation): 67 nM
SMILES: Cc1cnn2c1-c1cc(C(=O)N[C@H](CN)Cc3cccc(F)c3)sc1CCC2.O=C(O)/C=C\C(=O)O
Stability ([1]; high temperature and high humidity): stable under the conditions of high temperature and high humidity; also recorded: relatively stable, and less affected by heat and humidity
inhibitory effect on the growth of LNCaP cells [7]: significant inhibitory effect

From patent US11261196B2, “Salt serving as AKT inhibitor and crystal thereof” (HARBIN ZHENBAO PHARMACEUTICAL CO., LTD., priority 2017, dated 2022)
